Activity calls are given as the source filed them. For most assays here, no stated cut-off is given here; in the data, actives have a measured EC50 and inactives only a lower limit.
Legend:
[1] = target: T1, Heat shock factor protein 1 (Mus musculus, UniProt P38532); test: enhancement of HSF1-driven luciferase signal – cell-based, NIH3T3, luminescence, dose retest, confirmation (AID 435004); assay type: functional;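 further: stress induced by proteasome inhibitor MG132 added 30 min after compound; luciferase reporter driven by HSF1 response element in NIH3T3 cells; actives raise luminescence as potentiators of the MG132 stress response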
T1 sequence (P38532 whole entry): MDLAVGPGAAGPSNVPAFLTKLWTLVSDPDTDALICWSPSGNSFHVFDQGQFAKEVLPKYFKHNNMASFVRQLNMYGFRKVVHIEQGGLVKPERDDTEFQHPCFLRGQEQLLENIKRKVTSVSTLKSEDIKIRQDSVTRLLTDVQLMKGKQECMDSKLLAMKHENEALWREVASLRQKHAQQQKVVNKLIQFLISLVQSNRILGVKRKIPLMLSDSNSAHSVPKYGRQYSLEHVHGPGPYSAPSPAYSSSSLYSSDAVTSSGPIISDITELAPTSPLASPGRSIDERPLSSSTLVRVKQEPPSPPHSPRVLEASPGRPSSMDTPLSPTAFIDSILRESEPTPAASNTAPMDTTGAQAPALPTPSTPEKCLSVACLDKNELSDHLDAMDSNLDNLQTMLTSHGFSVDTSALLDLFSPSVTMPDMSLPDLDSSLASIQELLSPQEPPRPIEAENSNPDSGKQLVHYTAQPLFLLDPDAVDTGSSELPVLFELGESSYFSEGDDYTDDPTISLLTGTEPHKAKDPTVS

[2] = target: Luciferin 4-monooxygenase (Photinus pyralis, UniProt P08659); test: inhibition of purified Photinus pyralis luciferase – biochemical, luminescence, dose response (AID 1891)
Chain of Luciferin 4-monooxygenase (P08659 whole entry): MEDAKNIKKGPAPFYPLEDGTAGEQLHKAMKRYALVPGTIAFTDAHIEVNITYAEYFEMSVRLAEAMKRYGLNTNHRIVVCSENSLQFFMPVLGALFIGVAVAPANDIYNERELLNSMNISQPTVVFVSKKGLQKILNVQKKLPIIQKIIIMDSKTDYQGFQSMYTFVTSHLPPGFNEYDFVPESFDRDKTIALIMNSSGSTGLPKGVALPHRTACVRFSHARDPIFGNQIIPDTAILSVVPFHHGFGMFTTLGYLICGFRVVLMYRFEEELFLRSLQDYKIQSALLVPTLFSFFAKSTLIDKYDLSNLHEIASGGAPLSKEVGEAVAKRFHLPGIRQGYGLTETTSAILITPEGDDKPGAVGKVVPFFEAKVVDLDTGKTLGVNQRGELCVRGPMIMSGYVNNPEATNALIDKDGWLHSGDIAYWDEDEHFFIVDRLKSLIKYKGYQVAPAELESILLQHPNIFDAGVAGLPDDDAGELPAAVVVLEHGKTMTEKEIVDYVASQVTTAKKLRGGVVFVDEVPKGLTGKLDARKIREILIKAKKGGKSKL

[3] = Luminescence Cell-Based Dose Confirmation HTS to Identify Inhibitors of Platelet Dense Granule Release. [Related pubchem assays: 1663 (Primary HTS), 1678 (Summary of Project)]; assay type: functional
[4] = Luminescence Cell-Based Dose Retest to Confirm Inhibitors of Cancer Stem Cells. [Related pubchem assays (depositor defined):AID2717, AID2721]; assay type: functional; settings: Homo sapiens
[5] = target: T2, Replicative DNA helicase DnaB (Mycobacterium tuberculosis, UniProt P9WMR3); test: DnaB intein splicing inhibitors, dose response, biochemical, cell-free fluorescence (AID 449749); assay type: functional
T2 sequence (P9WMR3 whole entry): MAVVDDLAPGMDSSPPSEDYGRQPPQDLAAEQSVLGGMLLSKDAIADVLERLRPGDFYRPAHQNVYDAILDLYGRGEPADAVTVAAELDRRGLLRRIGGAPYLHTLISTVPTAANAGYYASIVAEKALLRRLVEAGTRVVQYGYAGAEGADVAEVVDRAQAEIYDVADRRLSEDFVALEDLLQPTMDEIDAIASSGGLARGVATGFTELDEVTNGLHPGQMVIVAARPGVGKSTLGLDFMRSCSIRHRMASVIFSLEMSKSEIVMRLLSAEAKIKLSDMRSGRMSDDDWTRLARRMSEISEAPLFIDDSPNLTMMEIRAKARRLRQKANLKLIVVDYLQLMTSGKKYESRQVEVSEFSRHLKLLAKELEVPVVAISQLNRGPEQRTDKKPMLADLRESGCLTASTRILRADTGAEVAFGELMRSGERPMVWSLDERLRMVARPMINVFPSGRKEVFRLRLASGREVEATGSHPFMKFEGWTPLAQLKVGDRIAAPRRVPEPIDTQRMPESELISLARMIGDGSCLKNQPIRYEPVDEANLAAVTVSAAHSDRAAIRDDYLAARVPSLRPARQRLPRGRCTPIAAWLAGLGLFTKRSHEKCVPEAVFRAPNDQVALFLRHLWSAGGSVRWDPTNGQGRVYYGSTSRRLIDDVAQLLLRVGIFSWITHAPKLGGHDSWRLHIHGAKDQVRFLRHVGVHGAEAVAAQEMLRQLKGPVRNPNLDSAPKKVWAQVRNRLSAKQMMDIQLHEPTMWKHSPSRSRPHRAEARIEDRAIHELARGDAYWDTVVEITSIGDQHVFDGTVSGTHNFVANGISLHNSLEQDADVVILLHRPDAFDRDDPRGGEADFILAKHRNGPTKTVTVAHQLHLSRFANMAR

Protein RecA = target: T3, Protein RecA (Mycobacterium tuberculosis, UniProt P9WHJ3); test: Fluorescence Cell-Free Homogeneous Dose Retest to Identify Inhibitors of RecA-Intein Splicing Activity. [Related pubchem assays (depositor defined):AID2097, AID2223, AID489010, AID492950]; assay type: functional
T3 sequence (P9WHJ3 whole entry): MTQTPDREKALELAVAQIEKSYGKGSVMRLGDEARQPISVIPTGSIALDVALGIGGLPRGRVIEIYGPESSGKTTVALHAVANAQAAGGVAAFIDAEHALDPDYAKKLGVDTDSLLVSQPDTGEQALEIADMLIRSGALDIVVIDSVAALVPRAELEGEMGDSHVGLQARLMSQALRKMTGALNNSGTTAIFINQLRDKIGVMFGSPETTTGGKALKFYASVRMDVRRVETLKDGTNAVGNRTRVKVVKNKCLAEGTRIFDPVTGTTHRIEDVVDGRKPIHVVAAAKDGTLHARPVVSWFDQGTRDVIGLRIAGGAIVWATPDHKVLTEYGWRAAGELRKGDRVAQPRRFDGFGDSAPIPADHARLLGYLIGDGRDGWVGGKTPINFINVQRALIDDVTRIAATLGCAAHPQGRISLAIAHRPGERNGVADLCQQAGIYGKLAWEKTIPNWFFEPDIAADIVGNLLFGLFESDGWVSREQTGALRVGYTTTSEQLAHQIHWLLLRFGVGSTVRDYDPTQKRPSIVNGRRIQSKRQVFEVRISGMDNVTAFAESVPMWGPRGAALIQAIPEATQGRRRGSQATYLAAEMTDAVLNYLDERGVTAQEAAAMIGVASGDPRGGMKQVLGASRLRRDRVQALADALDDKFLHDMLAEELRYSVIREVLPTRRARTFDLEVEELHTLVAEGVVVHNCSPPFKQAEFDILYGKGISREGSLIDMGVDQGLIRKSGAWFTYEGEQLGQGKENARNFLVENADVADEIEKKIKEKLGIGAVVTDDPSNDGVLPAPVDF

[6] = target: T4, Corticotropin-releasing factor receptor 2/Corticotropin-releasing factor-binding protein (Homo sapiens, UniProt P24387+Q13324); test: activators of CRF receptor 2 with binding protein – uHTS hits, confirmation (AID 602473); assay type: functional; settings: read-out: EC50_Mean
T4 sequence (Q13324 whole entry): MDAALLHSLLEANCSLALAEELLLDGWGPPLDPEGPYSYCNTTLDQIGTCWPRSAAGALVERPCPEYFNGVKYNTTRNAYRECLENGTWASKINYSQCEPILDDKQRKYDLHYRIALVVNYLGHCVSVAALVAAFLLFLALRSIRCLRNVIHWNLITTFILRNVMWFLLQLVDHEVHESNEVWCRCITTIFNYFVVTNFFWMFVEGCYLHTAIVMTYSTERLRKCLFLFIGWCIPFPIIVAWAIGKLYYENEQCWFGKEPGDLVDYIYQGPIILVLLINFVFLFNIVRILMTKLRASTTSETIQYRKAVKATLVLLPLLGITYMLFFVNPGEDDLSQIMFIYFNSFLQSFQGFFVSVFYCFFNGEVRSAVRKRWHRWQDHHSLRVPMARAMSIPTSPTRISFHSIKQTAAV
T4 sequence (P24387 whole entry): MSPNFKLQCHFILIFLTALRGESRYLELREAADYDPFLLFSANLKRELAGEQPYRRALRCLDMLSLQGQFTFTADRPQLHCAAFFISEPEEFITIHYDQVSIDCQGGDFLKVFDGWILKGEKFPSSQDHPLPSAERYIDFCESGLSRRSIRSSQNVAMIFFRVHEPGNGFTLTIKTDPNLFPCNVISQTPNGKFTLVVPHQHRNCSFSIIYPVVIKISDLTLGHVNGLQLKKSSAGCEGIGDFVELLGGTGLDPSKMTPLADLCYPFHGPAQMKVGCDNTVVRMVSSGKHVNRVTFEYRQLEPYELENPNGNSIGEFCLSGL

## CCOC(=O)c1cc(NC(=O)COc2ccc([N+](=O)[O-])cc2)cc(C(=O)OCC)c1
[1]
  EC50: > 260 µM (inactive)

## CCOc1ccc(CN(CCO)CCO)cc1C(=O)OC
[2]
  EC50: > 112 µM (not active)
[3]
  EC50: > 112 µM (not active)

## Cc1cccc(C)c1NS(=O)(=O)c1ccc(NC(=O)c2ccc(Cl)c([N+](=O)[O-])c2)cc1
[4]
  AC50: 1.46 µM (active)

## CCc1cc(C(=O)c2ccc(OC)cc2)c(N)s1
[1]
  EC50: > 260 µM (inactive)

## COc1ccc(OC)c(NC(=O)NNC(=O)COc2ccc(-c3ccccc3)cc2)c1
[4]
  AC50: 47.3 µM (active)

## CC(C)[C@H](NC(=O)OC(C)(C)C)c1nnc(SCC(=O)Nc2ccc(Br)cc2)o1
[1]
  EC50: 98.6 µM (active)

## O=S(=O)(Nc1ccc(-c2ccc3nncn3n2)cc1)c1cc(F)ccc1F
[2]
  EC50: > 112 µM (not active)
[3]
  EC50: > 112 µM (not active)

## CCOC(=O)C(C)n1cnc2c(nnn2-c2ccc(F)cc2)c1=O (stereo not given)
[2]
  EC50: > 112 µM (not active)
[3]
  EC50: > 112 µM (not active)

## COc1ccc(C2NC(=O)c3[nH]nc(C)c32)c(OC)c1 (stereo not given)
[2]
  EC50: > 112 µM (not active)
[3]
  EC50: 2.83 µM (active)

## CCN(CC)CCN1C(=O)C(O)=C(C(C)=O)C1c1ccccc1[N+](=O)[O-] (stereo not given)
[5]
  AC50: 10 µM (active)
Protein RecA
  EC50: 3.71 µM (active)

## O=C(Nc1nccs1)c1ccc(COc2ccccc2Cl)o1
[4]
  AC50: 2.45 µM (active)

## O=S(=O)(NC1CCCC1)c1ccc(S(=O)(=O)NC2CCCC2)cc1
[6]
  EC50: > 53 µM (inactive)

## Cc1ccc(S(=O)(=O)N2CCN(C(=O)CSc3ccc(Cl)cc3)CC2)cc1
[1]
  EC50: > 260 µM (inactive)

## CC(NC(=O)c1cc(S(=O)(=O)N2CCCC2)cn1C)c1ccccc1 (stereo not given)
[2]
  EC50: > 112 µM (not active)
[3]
  EC50: > 112 µM (not active)

## CCc1ccc(CN2C(=O)c3ccccc3C2C(=O)NCC2CCCO2)cc1 (stereo not given)
[1]
  EC50: 137 µM (active)

## CC(C)c1ccc(/C=N/NC(=O)c2nnn(-c3nonc3N)c2CSC2=NCCS2)cc1
[5]
  AC50: 9.47 µM (active)
Protein RecA
  EC50: 8.86 µM (active)

## CCCCOP(=O)(OCCCC)C1(NS(=O)(=O)c2ccccc2)C=CC(=O)c2ccccc21 (stereo not given)
[5]
  AC50: 4.8 µM (active)
Protein RecA
  EC50: 1.82 µM (active)

## Cc1ccc(Nc2nc(N3CCOCC3)c3ccccc3n2)cc1
[2]
  EC50: > 112 µM (not active)
[3]
  EC50: > 112 µM (not active)

## CCOC(=O)c1c(C)nc2c(c1-c1ccc(Cl)cc1)C(=O)CC(C)(C)C2
[4]
  AC50: 12.2 µM (active)

## CC1=CC(=O)OC2CC3OC4C[C@@H](C)C5OC6CC7O[C@]8(C)C/C=C\C9OC%10CC%11OC(CC(C)C%12OCCO%12)CC(O)[C@]%11(C)OC%10CC9OC8C[C@]7(C)O[C@]6(C)CCC5OC4C[C@]3(C)OC12 (stereo not given in full)
[6]
  EC50: 5.68 µM (active)

## Cc1ccc(NC(=O)CSCc2ccc(F)cc2)cc1
[2]
  EC50: > 112 µM (not active)
[3]
  EC50: > 112 µM (not active)

## COc1cccc(/N=C2\C(Cl)=C(O)OC2OC(=O)c2ccco2)c1 (stereo not given)
[5]
  AC50: 22.3 µM (active)
Protein RecA
  EC50: 14.6 µM (active)

## COc1ccccc1Nc1nc(NCc2ccco2)c2ccccc2n1
[2]
  EC50: > 112 µM (not active)
[3]
  EC50: > 112 µM (not active)

## CCOC(=O)c1cc(C)sc1NC(=O)CSC1=NCCS1
[5]
  AC50: 12 µM (active)
Protein RecA
  EC50: 21.4 µM (active)

## CC(C)(Oc1ccc(Cl)cc1)C(=O)Nc1ccc2oc(-c3ccncc3)nc2c1
[1]
  EC50: > 260 µM (inactive)

## COC(=O)C1CCN(C(=O)COC(=O)c2ccc(OC)c(S(=O)(=O)N3CCCc4ccccc43)c2)CC1
[1]
  EC50: > 260 µM (inactive)

## O=C(O)c1c(Cl)c(Cl)c(Cl)c(Cl)c1C(=O)N1CCCC1
[1]
  EC50: > 260 µM (inactive)

## CN(C)CCSc1n[nH]c2nc3ccccc3c-2n1
[5]
  AC50: 7.37 µM (active)
Protein RecA
  EC50: 2.79 µM (active)

## Cn1cnc([N+](=O)[O-])c1Oc1cccc2ccccc12
[5]
  AC50: 28.3 µM (active)
Protein RecA
  EC50: 13.2 µM (active)

## O=c1c(/C=N/Nc2ccccc2)c(Sc2nnnn2-c2ccccc2)nc2ccccn12
[6]
  EC50: 10.1 µM (active)

## O=C(Nc1ccc(O)c(-c2nc3ccccc3o2)c1)C1(c2ccc(Cl)cc2)CCCC1
[1]
  EC50: > 260 µM (inactive)

## Cc1cccc(NC(=O)CC(C)S(=O)(=O)c2ccc3c(c2)NC(=O)CO3)c1C (stereo not given)
[1]
  EC50: > 260 µM (inactive)

## O=C1CC(c2ccc(F)cc2)CC2=Nc3ccccc3NC=C12 (stereo not given)
[4]
  AC50: 3.58 µM (active)

## Cc1ccc(Cl)cc1NC(=O)c1cc(S(=O)(=O)N2CCOCC2)cn1C
[2]
  EC50: > 112 µM (not active)
[3]
  EC50: > 112 µM (not active)

## CCOc1cc(C(=S)N2CCOCC2)ccc1OS(=O)(=O)c1ccc(C)cc1
[1]
  EC50: > 260 µM (inactive)

## Cc1[nH]c2ccccc2c1C(=O)CSc1nncn1C
[2]
  EC50: > 112 µM (not active)
[3]
  EC50: > 112 µM (not active)

## COC(=O)c1ccc(N2CCN(CC(=O)c3ccc(-c4ccccc4)cc3)CC2)c([N+](=O)[O-])c1
[2]
  EC50: > 112 µM (not active)
[3]
  EC50: > 112 µM (not active)

From ChEMBL document CHEMBL1201862, “PubChem BioAssay data set” (2004)
